Read-outs that look alike come from different tables or passages of the source. Where a SMILES comes first, the peptide text is derived from it.
Tests used:
[1] = Colistin plasma concentration at steady state in patients treated with intravenous CMS (HPLC); assay type: in vivo, human
Protocol: CMS for injection was used and dosed in millions of IU throughout the study. The drug was administered intravenously in 100 mL of normal saline over 30 min in the commercially available colistimethate formulation for injection (GES GenéricosEspañoles®), with each vial containing 80 mg CMS (equivalent to 1 million IU of CMS and about 30 mg of colistin base activity). As the policy of our hospital, CMS is reserved for the treatment of infections due to bacteria that are resistant to carbapenems and other antipseudomonal antibiotics except colistin and, eventually, aminoglycosides. Dose selection was at the discretion of the responsible clinicians. CMS doses ranged from 1 to 3 million IU every 8 h (3–9 millions IU daily). The following dose adjustments were made according to the package insert’s recommendations in patients with impaired renal function: GFR ≥ 76 mL/min/1.73 m^2, 4–6 million IU daily in three doses; GFR 40 to 75 mL/min/1.73 m^2, 2–3 million IU daily in 2 doses; GFR 25–40 mL/min/1.73 m^2, 1.5–2 million IU daily divided into 1 or 2 doses; and GFR < 25 mL/min/1.73 m^2, 0.6–1 million IU daily every 36 h. No loading-dose was administered to any included patient.
Measurement of the plasma colistin concentration was performed at the fourth day of treatment, when was assumed that the colistin concentrations had reached the steady state. The colistin plasma trough concentrations (Cmin) were measured just before the administration of CMS. The maximum plasma concentrations (Cmax) were obtained 30 min after the end of the CMS infusion (1 h after the start of infusion). A specialized nurse performed extraction of blood. Samples were immediately placed in a portable refrigerator (4 °C) to be processed in a refrigerated centrifuge (4 °C) at the laboratory. Colistin concentrations in the plasma were determined using a validated high-performance liquid chromatography (HPLC) method as reportedby Li et al., with minor modifications as described previously by our group.
Following Couet et al., Cmin was chosen because it is more convenient from a practical view point and because due to the colistin pharmacokinetic behavior, there can be CMS hydrolysis to colistinafter sample extraction resulting in an overestimation of the real in vivo colistin plasma concentration. This phenomenon can be minimized when CMS plasma concentrations are lower what occurs at the end of the dosing interval (when the Cmin is measured). Throughout the present paper, we have used the term “average colistin concentration at steady state (Css)” to refer to the Cmin.

[2] = in vivo
Protocol: The serum creatinine level and estimated glomerular filtration rate (GFR) were recorded at baseline, at the moment of colistin plasma extraction (day 4), on day 7 and at the EOT. […] The RIFLE criteria (Table 1) estimated with exclusion of the urinary output criterion, were used for the detection and stratification of acute kidney injury (AKI) [22]. AKI during CMS treatment was defined as a 1.5-fold or more increase in serum creatinine and/or a decrease in the GFR of 25% or more. These criteria needed to be fulfilled for at least 2 consecutive measurements 24 h apart during CMS treatment.

[3] = tested on: colistin-susceptible XDR P. aeruginosa; experiment: Clinical outcome (clinical cure, 30-day mortality) of patients with XDR P. aeruginosa infections treated with intravenous CMS; assay type: in vivo, human
Protocol: A prospective observational cohort study was conducted between January 2009 and January 2013 at a 450-bed teaching hospital in Barcelona, Spain. All patients who had microbiologically documented infections due to colistin-susceptible XDR-P.aeruginosa and were administered CMS for at least 72 h, were included in the study. Only microbiologically documented and clinically defined infections caused by colistin-susceptible XDR P. aeruginosa treated with colistin were considered. Acute bronchitis and tracheitis were excluded from the analysis due to the difficulty in differentiating true infection from colonization in patients with chronic obstructive pulmonary disease (COPD).
The primary end point was clinical cure, and the secondary 30-day all-cause mortality.
Clinical cure and failure were defined as resolution and persistence/worsening, respectively, of symptoms and signs of infection.
Thirty-day mortality was defined as death occurring within 30 days of beginning CMS treatment.
Clinical cure was defined as having resolved clinical signs and symptoms and/or no need for additional antibiotic therapy. Clinical failure was defined as an inadequate response to antibiotic therapy, with worsening, new/recurrent signs and symptoms or death.

For `CC[C@H](C)CCCCC(=O)N[C@@H](CCN)C(=O)N[C@H](C(=O)N[C@@H](CCN)C(=O)N[C@H]1CCNC(=O)[C@H]([C@@H](C)O)NC(=O)[C@H](CCN)NC(=O)[C@H](CCN)NC(=O)[C@H](CC(C)C)NC(=O)[C@@H](CC(C)C)NC(=O)[C@H](CCN)NC1=O)[C@@H](C)O` [colistin] (HELM PEPTIDE1{[CC[C@H](C)CCCCC(=O)[*:2]].[Dab].T.[Dab].[Dab].[Dab].[dL].L.[Dab].[Dab].T}$PEPTIDE1,PEPTIDE1,5:R3-11:R2$$$V2.0), which Css/MIC ([1]; all included patients n = 91, mean ± SD, SD) is on record?
The Css/MIC was 3.43 ± 2.91.

What about the Cmax ([1]; human, iv, day 4, 30 min after end of 30-min CMS infusion, plasma, HPLC, mean ± SD, SD, read-out: Cmax (maximum plasma concentration)) of the same compound?
Its Cmax is 1660 ± 1400 ng/mL.

What about the level at 96 h ([1]; human, plasma, iv, day 4, just before administration of CMS, plasma, HPLC, mean ± SD, SD, read-out: Cmin (colistin plasma trough concentration)) of the same compound?
The level at 96 h was 1710 ± 1420 ng/mL.

And the level at 96 h ([1]; human, plasma, iv, patients who achieved clinical cure, mean (SD), abstract, SD, read-out: Css)?
Its level at 96 h is 1490 ng/mL.

What about the level at 96 h ([1]; human, plasma, iv, patients who did not achieve clinical cure, mean (SD), p = 0.01, abstract, SD, read-out: Css) of the same compound?
The level at 96 h was 2420 ng/mL.

And the level at 96 h ([1]; human, plasma, iv, patients who died n = 28, day 4 trough, plasma, HPLC, mean ± SD, P = 0.011 vs survived, read-out: Css)?
Its level at 96 h is 2100 ng/mL.

What about the level at 96 h ([1]; human, plasma, iv, patients who survived n = 63, day 4 trough, plasma, HPLC, mean ± SD, read-out: Css) of the same compound?
The level at 96 h was 1400 ng/mL.

What about the Css/MIC ([1]; patients who died n = 28, mean ± SD, P = 0.048 vs survived, SD) of the same compound?
The Css/MIC was 4.2 ± 2.7.

What about the “Css > 1.25 (mg/L), patients” value ([1]; patients who survived n = 63) of the same compound?
Its value is 28 (44.4) n (%).

And the Css/MIC ([1]; patients who survived n = 63, mean ± SD, SD)?
The Css/MIC was 3.1 ± 3.

And the Css/MIC ([1]; patients with clinical cure n = 72, mean ± SD, SD)?
The Css/MIC was 3.13 ± 2.9.

And the Css/MIC ([1]; patients with clinical failure n = 19, mean ± SD, P = 0.03 vs cure, SD)?
The Css/MIC was 4.61 ± 2.86.

With colistimethate sodium [CMS] as the compound, how does the “AKI RIFLE F at the EOT, patients” value [2] read?
The value was 11%.

And the “AKI RIFLE F on day 7 of treatment, patients” value [2]?
The value was 2.2%.

And the “AKI RIFLE I at the EOT, patients” value [2]?
Its value is 29.7%.

What about the “AKI RIFLE I on day 7 of treatment, patients” value [2] of the same compound?
Its value is 9.9%.

What about the “AKI RIFLE R at the EOT, patients” value [2] of the same compound?
The value was 13.2%.

What about the “AKI RIFLE R on day 7 of treatment, patients” value [2] of the same compound?
The value was 20.9%.

And the “CMS dose modified because of AKI, patients” value [2]?
Its value is 17.5%.

And the “GFR returned to baseline at the end of follow-up, patients” value [2]?
Its value is 35.1%.

What about the “Impairment of renal function during CMS treatment at the EOT, patients” value [2] of the same compound?
The value was 53.8%.

And the “Impairment of renal function during CMS treatment on day 7, patients” value [2]?
Its value is 33%.

What about the “Patients with AKI at day 7, F (Failure)” value [2] of the same compound?
Its value is 2 (2.2) n (%).

What about the “Patients with AKI at day 7, I (Injury)” value [2] of the same compound?
Its value is 9 (9.9) n (%).

What about the “Patients with AKI at day 7, R (Risk)” value [2] of the same compound?
Its value is 19 (20.9) n (%).

And the “Patients with AKI at the EOT, F (Failure)” value [2]?
The value was 10 (11) n (%).

What about the “Patients with AKI at the EOT, I (Injury)” value [2] of the same compound?
Its value is 27 (27.7) n (%).

And the “Patients with AKI at the EOT, R (Risk)” value [2]?
The value was 12 (13.2) n (%).

And the “persisted with some grade of impairment of renal function at the end of follow-up, patients” value [2]?
Its value is 2.1%.

What about the infection-related mortality rate ([3]; 13 patients died due to P. aeruginosa infection, n = 91) of the same compound?
The infection-related mortality rate was 14.3%.

What about the “30-day all-cause mortality rate” value ([3]; 28 of 91 patients, i.v. CMS) of the same compound?
Its value is 30.9%.
